The text below walks through data of patent US11161871B2, “Crystalline form of obeticholic acid and preparation method therefor” (Jiangsu Hengrui Medicine Co., Ltd., priority 2016, dated 2021).

For series [1] the following is noted: placebo-controlled phase III clinical trial; cited from earlier work.
A short description of series [2]: Drying at 80° C. of crystal product crystallized with butyl acetate. The settings on record: crystal product from butyl acetate dried at 80° C. It counts as physicochemical.
Series [3] can be described thus: Special stability study: grinding, heating, tableting (crystal form, DSC). It counts as physicochemical.
Series [4] in a line: Stability of crystal form E spread flat in the air under lighting, heating and high humidity, purity by HPLC. It counts as physicochemical. The settings on record: for Purity detected by HPLC, 40° C.: heating 40° C.; for Purity detected by HPLC, 60° C.: heating 60° C.; for Purity detected by HPLC, RH 75%: high humidity RH 75%; for Purity detected by HPLC, RH 90%: high humidity RH 90%; for Purity detected by HPLC, Lighting: lighting 4500 Lux. The protocol:
Samplings were carried out on Day 5 and Day 10.

A short description of series [5]: Stability under placement condition (30° C., RH 65%), HPLC purity and X-ray powder diffraction. The format is physicochemical. The settings on record: for Crystal form (X-ray powder diffraction) / Purity determined by HPLC: 30° C. Here is the method:
Samplings were carried out on Day 5, Day 10, and Day 30.

In the case of `CC[C@H]1[C@@H](O)[C@@H]2[C@H](CC[C@]3(C)[C@@H]([C@H](C)CCC(=O)O)CC[C@@H]23)[C@@]2(C)CC[C@@H](O)C[C@@H]12` [obeticholic acid], in series [1], the “Biomarkers associated with reduced risk of liver transplantation” value was “increases the level of two biomarkers associated with reduced risk of liver transplantation”. Moreover, the “Thermal stability on drying (colour change, degradation)” value in series [2] was “unstable at 80 °C and has undergone degradation”.
For `CC[C@H]1[C@@H](O)[C@@H]2[C@H](CC[C@]3(C)[C@@H]([C@H](C)CCC(=O)O)CC[C@@H]23)[C@@]2(C)CC[C@@H](O)C[C@@H]12` [Crystal form E, obeticholic acid], the DSC peak in series [3] (after grinding treatment for 10 minutes in a mortar under nitrogen) was determined as 94.3 °C; in series [3] (after heating treatment for 3 hours at 80° C.), 94.5 °C; in series [3] (after tableting treatment) it was 94.6 °C. In addition, the “Stability of the crystal form (in words)” value in series [3] (ground, heated or tableted (grinding, pressure and heating)) was “the crystal form was stable”. For the same compound, the entries for the “Purity detected by HPLC, 40° C.” value in series [4] (day 0), in series [4] (day 5) and in series [4] (day 10) were 99.7%, 99.6% and 99.5%, respectively. Also, the “Purity detected by HPLC, 60° C.” value in series [4] (day 0) worked out at 99.7%; in series [4] (day 5), 99.4%; in series [4] (day 10), 99.1%. Also, the “Purity detected by HPLC, RH 75%” value in series [4] (day 0), in series [4] (day 5) and in series [4] (day 10) was 99.7% each time. In addition, the “Purity detected by HPLC, RH 90%” value in series [4] (day 0) was found to be 99.7%; in series [4] (day 5), 99.6%; in series [4] (day 10), 99.5%. In addition, the “Purity detected by HPLC, Lighting” value in series [4] (day 0) was 99.7%; in series [4] (day 5) it was 99.6%; in series [4] (day 10) it was 99.6%. Moreover, the “Stability (in words)” value in series [4] (lighting, high temperature and high humidity (summary statement)) is reported as “stable”; in series [4] (spread flat in the air, high temperature) it was “slightly degraded”; in series [4] (spread flat in the air, lighting/high humidity), “good stability”; in series [5] (placement condition 30° C., up to Day 30) it was “stable under the placement condition”. The “Crystal form (X-ray powder diffraction)” value in series [5] (Day 0), in series [5] (Day 5), in series [5] (Day 10) and in series [5] (Day 30) was “Crystal form E” each time. Also, the “Purity determined by HPLC” value in series [5] (Day 0) was determined as 99.75%; in series [5] (Day 5), 99.72%; in series [5] (Day 10), 99.73%; in series [5] (Day 30), 99.70%.
